From PubChem BioAssay AID651650 (Sanford-Burnham Center for Chemical Genomics, 2012) come the findings set out here.

Each structure is given as a SMILES string. The source made the active and inactive calls.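 The calls were made as follows: active = mean IC50 below 20 µM in each of the two panels, so potent in both; inactive = the rest.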

For this experiment, the target named is Neuropilin-1 (Homo sapiens) (UniProt O14786). The experiment can be described thus: blockers of CendR peptide binding to NRP-1 – biochemical, FP and AlphaScreen panel, dose response (AID 651650). The conditions noted are these: NRP-1 b1b2 / RPARPAR peptide binding, FP or AlphaScreen. For orientation: Bead proximity is the source of the signal in Alpha formats.

Setting [1] is: AlphaScreen, run 1, individual panel run IC50.
Where [2] appears, read: FP, run 1, individual panel run IC50.
Setting [3] is: FP, run 2, individual panel run IC50.

One may read the IC50 as the concentration at which inhibition is half-maximal.

Sequence of Neuropilin-1 (Homo sapiens) (O14786 whole entry, looked up): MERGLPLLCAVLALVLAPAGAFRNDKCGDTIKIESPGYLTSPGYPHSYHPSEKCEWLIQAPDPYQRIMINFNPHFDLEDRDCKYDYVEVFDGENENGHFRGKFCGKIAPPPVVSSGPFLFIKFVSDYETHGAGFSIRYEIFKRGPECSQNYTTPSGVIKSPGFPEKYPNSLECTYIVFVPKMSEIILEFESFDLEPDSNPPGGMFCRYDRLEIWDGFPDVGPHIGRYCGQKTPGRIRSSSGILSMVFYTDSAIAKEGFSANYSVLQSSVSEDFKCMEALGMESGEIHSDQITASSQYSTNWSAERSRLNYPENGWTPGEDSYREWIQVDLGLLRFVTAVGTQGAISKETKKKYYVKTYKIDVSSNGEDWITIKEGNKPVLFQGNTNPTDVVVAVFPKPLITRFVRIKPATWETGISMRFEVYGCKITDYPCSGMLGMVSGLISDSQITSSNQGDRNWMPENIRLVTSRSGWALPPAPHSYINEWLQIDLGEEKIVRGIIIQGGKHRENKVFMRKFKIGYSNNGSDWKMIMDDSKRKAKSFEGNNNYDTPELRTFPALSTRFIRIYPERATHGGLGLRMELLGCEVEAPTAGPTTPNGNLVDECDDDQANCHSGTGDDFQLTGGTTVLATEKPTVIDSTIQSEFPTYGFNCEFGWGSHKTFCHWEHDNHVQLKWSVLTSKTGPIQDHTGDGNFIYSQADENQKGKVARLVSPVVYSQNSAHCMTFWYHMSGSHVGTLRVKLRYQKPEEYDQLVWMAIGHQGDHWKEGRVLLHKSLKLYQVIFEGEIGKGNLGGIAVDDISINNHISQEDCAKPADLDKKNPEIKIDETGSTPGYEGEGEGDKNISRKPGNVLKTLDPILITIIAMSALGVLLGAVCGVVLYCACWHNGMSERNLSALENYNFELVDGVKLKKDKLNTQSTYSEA

In the case of `CC(C)OC(=O)CSc1nnc(-c2ccccn2)n1-c1ccccc1`, the IC50 was > 100 µM (inactive) (AlphaScreen, mean of runs); above 100 µM under setting [1]; > 95 µM (inactive) (FP, mean of runs); above 95 µM under setting [2]; above 95 µM under setting [3].

Regarding `CCC1Nc2ncnc(N3CCCCC3)c2N(Cc2ccc(C)cc2)C1=O` (stereo not given), the IC50 (AlphaScreen, mean of runs) is > 100 µM (inactive); the IC50 under setting [1] was above 100 µM; the IC50 (FP, mean of runs) is > 95 µM (inactive); the IC50 under setting [2] is above 95 µM; the IC50 under setting [3] is above 95 µM.

For the compound `CCCn1c(C)cc(C(=O)CSc2nc3nc(C)cc(C)n3n2)c1C`, the IC50 is > 100 µM (inactive) (AlphaScreen, mean of runs); above 100 µM under setting [1]; > 95 µM (inactive) (FP, mean of runs); above 95 µM under setting [2]; above 95 µM under setting [3].

Regarding `Cc1cc(N/C(=N/S(=O)(=O)c2cc(F)ccc2F)c2ccccc2)n(-c2ccccc2)n1`, the IC50 was > 100 µM (inactive) (AlphaScreen, mean of runs); above 100 µM under setting [1]; > 95 µM (inactive) (FP, mean of runs); above 95 µM under setting [2]; above 95 µM under setting [3].

On to `OCC[C@H]1C[C@H](O)[C@@H](O)[C@]2(CCCCO2)O1`, for which the IC50 (AlphaScreen, mean of runs) was > 100 µM (inactive); the IC50 under setting [1] was above 100 µM; the IC50 (FP, mean of runs) is > 95 µM (inactive); the 50% inhibitory concentration (IC50) under setting [2] is above 95 µM; the IC50 under setting [3] is above 95 µM.

For the compound `CCC1=C(OC(=O)N(CC)CC)N2C(=O)OC(=NCC(=O)OC)[C@]2(C)[C@H]2C1=CC[C@H]1C(=O)N(CC)C(=O)[C@H]12`, the IC50 was > 100 µM (inactive) (AlphaScreen, mean of runs); above 100 µM under setting [1]; > 95 µM (inactive) (FP, mean of runs); above 95 µM under setting [2]; above 95 µM under setting [3].

For `O=C(O)c1cccc(N2C(=O)c3cc([N+](=O)[O-])cc4cc([N+](=O)[O-])cc(c34)C2=O)c1`, the IC50 is, setting by setting: (AlphaScreen, mean of runs) > 100 µM (inactive); under setting [1], above 100 µM; (FP, mean of runs) > 95 µM (inactive); under setting [2], above 95 µM; under setting [3], above 95 µM.

Turning to `NC(N)=NCCC[C@H](NC(=O)OCc1ccccc1)C(=O)O`, the IC50 is > 100 µM (inactive) (AlphaScreen, mean of runs); above 100 µM under setting [1]; > 95 µM (inactive) (FP, mean of runs); above 95 µM under setting [2]; above 95 µM under setting [3].

In the case of `Cc1ccc(C(=O)N2CCN(C34CC5CC(CC(C5)C3)C4)CC2)o1`, the IC50 result (AlphaScreen, mean of runs) is “inactive”. Moreover, the IC50 was 75.4 µM under setting [1]; > 95 µM (inactive) (FP, mean of runs); above 95 µM under setting [2]; above 95 µM under setting [3].

For the compound `COc1ccc2c(c1OC)CN1CCc3cc4c(cc3[C@@H]1[C@@H]2O)OCO4`, the IC50 was > 100 µM (inactive) (AlphaScreen, mean of runs); above 100 µM under setting [1]; > 95 µM (inactive) (FP, mean of runs); above 95 µM under setting [2]; above 95 µM under setting [3].

`COc1ccc(C2CC(C(F)(F)F)n3nc(C(=O)O)c(Cl)c3N2)cc1OC` (stereo not given): the IC50 was > 100 µM (inactive) (AlphaScreen, mean of runs); above 100 µM under setting [1]; 53.3 µM under setting [2]; 61.7 µM under setting [3]. Besides, for the setting “FP, mean of runs”, the IC50 entry was “inactive”.

Take `c1ccc(OCCCN2CCCC2)cc1`: the IC50 is, setting by setting: (AlphaScreen, mean of runs) > 100 µM (inactive); under setting [1], above 100 µM; (FP, mean of runs) > 95 µM (inactive); under setting [2], above 95 µM; under setting [3], above 95 µM.

Turning to `CC(=O)Nc1ccc(NC(=O)C2CC(=O)N=C(N)S2)cc1` (stereo not given), the IC50 (AlphaScreen, mean of runs) was > 100 µM (inactive); the IC50 under setting [1] is above 100 µM; the IC50 (FP, mean of runs) is > 95 µM (inactive); the IC50 under setting [2] is above 95 µM; the IC50 under setting [3] is above 95 µM.

For the compound `CC(C)(C)n1cnc2cc(NC(=O)c3ccccc3)ccc21`, the IC50 reads like this: (AlphaScreen, mean of runs) 17 µM; under setting [1], 17 µM; (FP, mean of runs) > 95 µM (inactive); under setting [2], above 95 µM; under setting [3], above 95 µM.

As to `O=C(CCC(=O)Nc1ccccc1Cl)NN=C1CCCC1`, the IC50 result (AlphaScreen, mean of runs) is “inactive”. The IC50 reads like this: under setting [1], 43.4 µM; (FP, mean of runs) > 95 µM (inactive); under setting [2], above 95 µM; under setting [3], above 95 µM.

Turning to `Cc1ccc(C(=O)N/C(=C\c2sccc2C)C(=O)NCc2ccco2)cc1`, where the note is “AlphaScreen, mean of runs”, the IC50 entry was “inactive”. Further, the IC50 is, setting by setting: under setting [1], 92 µM; (FP, mean of runs) > 95 µM (inactive); under setting [2], above 95 µM; under setting [3], above 95 µM.

Consider `CN(C)CCOC(c1ccc(Cl)cc1)c1ccccn1` (stereo not given), for which the IC50 by setting is: (AlphaScreen, mean of runs) > 100 µM (inactive); under setting [1], above 100 µM; (FP, mean of runs) > 95 µM (inactive); under setting [2], above 95 µM; under setting [3], above 95 µM.

For `Cc1cc2c(cc1C)NC(c1nc3ccccc3[nH]1)C1=C(CC(C)(C)CC1=O)N2` (stereo not given), the IC50 runs as follows: (AlphaScreen, mean of runs) > 100 µM (inactive); under setting [1], above 100 µM; (FP, mean of runs) > 95 µM (inactive); under setting [2], above 95 µM; under setting [3], above 95 µM.

For `CCC1=C(OC(=O)N(CC)CC)N2C(=O)OC(=NCCOC)[C@]2(Cc2ccccc2)[C@H]2C1=CC[C@H]1C(=O)N(CC(=O)OC)C(=O)[C@H]12`, the IC50 (AlphaScreen, mean of runs) is > 100 µM (inactive); the concentration for half-maximal inhibition (IC50) under setting [1] is above 100 µM; the IC50 (FP, mean of runs) is > 95 µM (inactive); the IC50 under setting [2] was above 95 µM; the IC50 under setting [3] is above 95 µM.

On to `COC(=O)c1ccc(Cn2nnc3c(=O)[nH]c(C4CCCN(S(=O)(=O)c5cccc(Cl)c5)C4)nc32)cc1` (stereo not given), for which the IC50 was > 100 µM (inactive) (AlphaScreen, mean of runs); above 100 µM under setting [1]; > 95 µM (inactive) (FP, mean of runs); above 95 µM under setting [2]; above 95 µM under setting [3].

Consider `COc1cc(C(=O)NCc2ccccc2)cc(Br)c1OC`, for which the IC50 is > 100 µM (inactive) (AlphaScreen, mean of runs); above 100 µM under setting [1]; > 95 µM (inactive) (FP, mean of runs); above 95 µM under setting [2]; above 95 µM under setting [3].

As to `Cc1ccc(NC(=S)N2CCN(Cc3ccccc3)CC2)cc1`, the IC50 reads like this: (AlphaScreen, mean of runs) > 100 µM (inactive); under setting [1], above 100 µM; (FP, mean of runs) > 95 µM (inactive); under setting [2], above 95 µM; under setting [3], above 95 µM.

As for `CCC1=C(OC(=O)N(CC)CC)N2C(=O)OC(=NCC(=O)OC)[C@]2(Cc2ccccc2)[C@H]2C1=CC[C@H]1C(=O)N(CC(=O)OC)C(=O)[C@H]12`, where the note is “AlphaScreen, mean of runs”, the IC50 result was “inactive”. Moreover, the IC50 reads like this: under setting [1], 64.8 µM; (FP, mean of runs) > 95 µM (inactive); under setting [2], above 95 µM; under setting [3], above 95 µM.

On to `CC(=O)Nc1ccccc1OCC(=O)N(Cc1ccccc1)C(C)C`, for which the IC50 is, setting by setting: (AlphaScreen, mean of runs) > 100 µM (inactive); under setting [1], above 100 µM; (FP, mean of runs) > 95 µM (inactive); under setting [2], above 95 µM; under setting [3], above 95 µM.

Consider `O=c1c2ccccc2nc2n1C(CSc1ccc(F)cc1)CS2` (stereo not given), for which the concentration for half-maximal inhibition (IC50) runs as follows: (AlphaScreen, mean of runs) 11.5 µM; under setting [1], 11.5 µM; (FP, mean of runs) > 95 µM (inactive); under setting [2], above 95 µM; under setting [3], above 95 µM.

Consider `CCc1ccc(NS(=O)(=O)c2c(C(=O)N3CCCCCC3)c(C)n(C)c2C)cc1`, for which the IC50 is, setting by setting: (AlphaScreen, mean of runs) > 100 µM (inactive); under setting [1], above 100 µM; (FP, mean of runs) > 95 µM (inactive); under setting [2], above 95 µM; under setting [3], above 95 µM.

With `Cc1ccccc1Nc1cc(=O)oc2ccccc12`, the IC50 (AlphaScreen, mean of runs) is > 100 µM (inactive); the IC50 under setting [1] is above 100 µM; the IC50 (FP, mean of runs) is > 95 µM (inactive); the IC50 under setting [2] is above 95 µM; the IC50 under setting [3] is above 95 µM.

With `Oc1ccccc1-c1ccn[nH]1`, the IC50 was > 100 µM (inactive) (AlphaScreen, mean of runs); above 100 µM under setting [1]; > 95 µM (inactive) (FP, mean of runs); above 95 µM under setting [2]; above 95 µM under setting [3].

With `Cc1occc1C(=O)N1N=C(C2CC2)CC1(O)C(F)(F)F` (stereo not given), the IC50 (AlphaScreen, mean of runs) was > 100 µM (inactive); the IC50 under setting [1] is above 100 µM; the IC50 (FP, mean of runs) is > 95 µM (inactive); the IC50 under setting [2] was above 95 µM; the IC50 under setting [3] was above 95 µM.

As for `O=C(CN1C2=NCCN2c2ccccc21)c1ccco1`, the IC50 (AlphaScreen, mean of runs) is > 100 µM (inactive); the IC50 under setting [1] is above 100 µM; the IC50 (FP, mean of runs) was > 95 µM (inactive); the IC50 under setting [2] is above 95 µM; the IC50 under setting [3] is above 95 µM.

As for `C=C[C@]12CC[C@H](OC(C)=O)CC1=CCC1C2CC[C@@]2(C)C1CCC21OCCO1` (stereo not given in full), the IC50 runs as follows: (AlphaScreen, mean of runs) > 100 µM (inactive); under setting [1], above 100 µM; (FP, mean of runs) > 95 µM (inactive); under setting [2], above 95 µM; under setting [3], above 95 µM.

As for `Cc1ccccc1Oc1ccc2c(c1)[C@@H]1C[C@H](N(C)C(=O)Nc3cc(Cl)cc(Cl)c3)[C@H]([C@H](C)O)C(=O)N1CC2`, the IC50 (AlphaScreen, mean of runs) is 12.3 µM; the IC50 under setting [1] turned out to be 12.3 µM; the IC50 (FP, mean of runs) was > 95 µM (inactive); the IC50 under setting [2] is above 95 µM; the IC50 under setting [3] was above 95 µM.

Turning to `C=CCN(CC=C)C(=O)C1CC(=O)N(c2ccc(Br)cc2)C1` (stereo not given), the IC50 was > 100 µM (inactive) (AlphaScreen, mean of runs); above 100 µM under setting [1]; > 95 µM (inactive) (FP, mean of runs); above 95 µM under setting [2]; above 95 µM under setting [3].

For `Cc1nn(-c2ccccc2)c(C)c1C(=O)OCC(=O)Nc1ccccc1`, the IC50 is > 100 µM (inactive) (AlphaScreen, mean of runs); above 100 µM under setting [1]; > 95 µM (inactive) (FP, mean of runs); above 95 µM under setting [2]; above 95 µM under setting [3].
